{"source": "patent US20070196886A1", "about": "(priority 2004, published 2007)", "key": {"[1]": {"test_system": "Strain DH5α transformed with pRL663 or a pRL663 derivative"}, "bacterial RNAP": {"test_system": "bacterial RNAP", "settings": "unpublished data"}}, "note": "Like-named read-outs stand apart in the source and are kept apart here."}
{"substance": "Microcin J25 [MccJ25]", "values": [{"measurement": "MBC", "setting": "[1]; rpoC 782 Gly→Ala, saturation mutagenesis", "value": 1000, "unit": "µg/mL"}, {"measurement": "MBC", "setting": "[1]; rpoC 783 Leu→Pro, saturation mutagenesis", "value": 100, "unit": "µg/mL"}, {"measurement": "MBC", "setting": "[1]; rpoC 784 Ala→Glu, saturation mutagenesis", "value": 500, "unit": "µg/mL"}, {"measurement": "MBC", "setting": "[1]; rpoC 785 Asp→Gly, saturation mutagenesis", "value": 500, "unit": "µg/mL"}, {"measurement": "MBC", "setting": "[1]; rpoC 786 Thr→Ala, saturation mutagenesis", "value": 500, "unit": "µg/mL"}, {"measurement": "MBC", "setting": "[1]; rpoC 786 Thr→Ile, saturation mutagenesis", "value": 500, "unit": "µg/mL"}, {"measurement": "MBC", "setting": "[1]; rpoC 788 Leu→Met, saturation mutagenesis", "value": 1000, "unit": "µg/mL"}, {"measurement": "MBC", "setting": "[1]; rpoC 789 Lys→Arg, saturation mutagenesis", "value": 500, "unit": "µg/mL"}, {"measurement": "MBC", "setting": "[1]; rpoC 789 Lys→Asn, saturation mutagenesis", "value": 1000, "unit": "µg/mL"}, {"measurement": "MBC", "setting": "[1]; rpoC 789 Lys→Gln, saturation mutagenesis", "value": 1000, "unit": "µg/mL"}, {"measurement": "MBC", "setting": "[1]; rpoC 790 Thr→Ala, saturation mutagenesis", "value": 1000, "unit": "µg/mL"}, {"measurement": "MBC", "setting": "[1]; rpoC 790 Thr→Asn, saturation mutagenesis", "value": 500, "unit": "µg/mL"}, {"measurement": "MBC", "setting": "[1]; rpoC 790 Thr→Ile, saturation mutagenesis", "value": 1000, "unit": "µg/mL"}, {"measurement": "MBC", "setting": "[1]; rpoC 790 Thr→Ser, saturation mutagenesis", "value": 500, "unit": "µg/mL"}, {"measurement": "MBC", "setting": "[1]; rpoC 922 Cys→Tyr, saturation mutagenesis", "value": 500, "unit": "µg/mL"}, {"measurement": "MBC", "setting": "[1]; rpoC 926 Pro→Ser, saturation mutagenesis", "value": 500, "unit": "µg/mL"}, {"measurement": "MBC", "setting": "[1]; rpoC 927 Gly→Cys, saturation mutagenesis", "value": 1000, "unit": "µg/mL"}, {"measurement": "MBC", "setting": "[1]; rpoC 927 Gly→Ser, saturation mutagenesis", "value": 1000, "unit": "µg/mL"}, {"measurement": "MBC", "setting": "[1]; rpoC 930 Leu→Met, saturation mutagenesis", "value": 1000, "unit": "µg/mL"}, {"measurement": "MBC", "setting": "[1]; rpoC 931 Thr→Ala, saturation mutagenesis", "value": 1000, "unit": "µg/mL"}, {"measurement": "MBC", "setting": "[1]; rpoC 931 Thr→Ile, saturation mutagenesis", "value": 1000, "unit": "µg/mL"}, {"measurement": "MBC", "setting": "[1]; rpoC 932 Met→Ile, saturation mutagenesis", "value": 1000, "unit": "µg/mL"}, {"measurement": "MBC", "setting": "[1]; rpoC 933 Arg→Cys, saturation mutagenesis", "value": 1000, "unit": "µg/mL"}, {"measurement": "MBC", "setting": "[1]; rpoC 1136 Gly→Ala, saturation mutagenesis", "value": 500, "unit": "µg/mL"}, {"measurement": "MBC", "setting": "[1]; rpoC 1136 Gly→Cys, saturation mutagenesis", "value": 1000, "unit": "µg/mL"}, {"measurement": "MBC", "setting": "[1]; rpoC 1137 Gly→Ala, saturation mutagenesis", "value": 500, "unit": "µg/mL"}, {"measurement": "MBC", "setting": "[1]; rpoC 1137 Gly→Arg, saturation mutagenesis", "value": 1000, "unit": "µg/mL"}, {"measurement": "MBC", "setting": "[1]; rpoC 1240 Val→Glu, saturation mutagenesis", "value": 500, "unit": "µg/mL"}, {"measurement": "MBC", "setting": "[1]; rpoC 1241 Tyr→Cys, saturation mutagenesis", "value": 100, "unit": "µg/mL"}, {"measurement": "MBC", "setting": "[1]; rpoC 1241 Tyr→His, saturation mutagenesis", "value": 100, "unit": "µg/mL"}, {"measurement": "MBC", "setting": "[1]; rpoC 1241 Tyr→Ser, saturation mutagenesis", "value": 100, "unit": "µg/mL"}, {"measurement": "MBC", "setting": "[1]; rpoC 1244 Gln→Glu, saturation mutagenesis", "value": 100, "unit": "µg/mL"}, {"measurement": "MBC", "setting": "[1]; rpoC 1244 Gln→Leu, saturation mutagenesis", "value": 500, "unit": "µg/mL"}, {"measurement": "MBC", "setting": "[1]; rpoC 1244 Gln→Pro, saturation mutagenesis", "value": 100, "unit": "µg/mL"}, {"measurement": "MBC", "setting": "[1]; rpoC 1247 Lys→Gln, saturation mutagenesis", "value": 100, "unit": "µg/mL"}, {"measurement": "MBC", "setting": "[1]; rpoC 1247 Lys→Glu, saturation mutagenesis", "value": 100, "unit": "µg/mL"}, {"measurement": "MBC", "setting": "[1]; rpoC 1248 Ile→Ser, saturation mutagenesis", "value": 100, "unit": "µg/mL"}, {"measurement": "MBC", "setting": "[1]; β′ 424 Asn→Ser, random mutagenesis, single mutant constructed using site-directed mutagenesis", "value": 100, "unit": "µg/mL"}, {"measurement": "MBC", "setting": "[1]; β′ 428 Thr→Ile, random mutagenesis", "value": 500, "unit": "µg/mL"}, {"measurement": "MBC", "setting": "[1]; β′ 430 His→Leu, random mutagenesis", "value": 500, "unit": "µg/mL"}, {"measurement": "MBC", "setting": "[1]; β′ 464 Asp→Gly, random mutagenesis", "value": 0, "unit": "µg/mL"}, {"measurement": "MBC", "setting": "[1]; β′ 469 His→Arg, random mutagenesis", "value": 0, "unit": "µg/mL"}, {"measurement": "MBC", "setting": "[1]; β′ 504 Gln→Arg, random mutagenesis", "value": 500, "unit": "µg/mL"}, {"measurement": "MBC", "setting": "[1]; β′ 733 Ser→Phe, random mutagenesis", "value": 500, "unit": "µg/mL"}, {"measurement": "MBC", "setting": "[1]; β′ 738 Arg→Leu, random mutagenesis", "value": 0, "unit": "µg/mL"}, {"measurement": "MBC", "setting": "[1]; β′ 776 Thr→Ile, random mutagenesis", "value": 500, "unit": "µg/mL"}, {"measurement": "MBC", "setting": "[1]; β′ 779 Ala→Thr, random mutagenesis", "value": 1000, "unit": "µg/mL"}, {"measurement": "MBC", "setting": "[1]; β′ 780 Arg→Cys, random mutagenesis", "value": 1000, "unit": "µg/mL"}, {"measurement": "MBC", "setting": "[1]; β′ 782 Gly→Ala, random mutagenesis", "value": 1000, "unit": "µg/mL"}, {"measurement": "MBC", "setting": "[1]; β′ 785 Asp→Gly, random mutagenesis", "value": 500, "unit": "µg/mL"}, {"measurement": "MBC", "setting": "[1]; β′ 786 Thr→Ile, random mutagenesis", "value": 500, "unit": "µg/mL"}, {"measurement": "MBC", "setting": "[1]; β′ 789 Lys→Arg, random mutagenesis", "value": 500, "unit": "µg/mL"}, {"measurement": "MBC", "setting": "[1]; β′ 789 Lys→Gln, random mutagenesis", "value": 1000, "unit": "µg/mL"}, {"measurement": "MBC", "setting": "[1]; β′ 869 Cys→Arg, random mutagenesis", "value": 1000, "unit": "µg/mL"}, {"measurement": "MBC", "setting": "[1]; β′ 933 Arg→Cys, random mutagenesis", "value": 1000, "unit": "µg/mL"}, {"measurement": "MBC", "setting": "[1]; β′ 1244 Gln→Leu, random mutagenesis", "value": 500, "unit": "µg/mL"}, {"measurement": "cross-resistance with rifampicin", "setting": "bacterial RNAP", "value": "do not exhibit cross-resistance with rifampicin"}]}
